# Reference: patent US20260217701A1, “SELECTIVE BET INHIBITORS AND USES THEREOF” (Tay Therapeutics Limited, priority 2022, published 2026)
# “Also recorded” adds a separate entry of the source.
# Test system: collagen-induced arthritis
# Experiment: CIA model: histopathologic analysis of hind limbs
# Format: in vivo, Lewis rats
# Settings: for Erosion/Ulcer, cartilaginous, Marked (number of animals) / Erosion/Ulcer, cartilaginous, Mild (number of animals) / Erosion/Ulcer, cartilaginous, Minimal (number of animals) / Erosion/Ulcer, cartilaginous, Moderate (number of animals) / Granulation tissue, Marked (number of animals) / Granulation tissue, Mild (number of animals) / Granulation tissue, Minimal (number of animals) / Granulation tissue, Moderate (number of animals) / Increased bone, periosteum, Marked (number of animals) / Increased bone, periosteum, Mild (number of animals) / Increased bone, periosteum, Minimal (number of animals) / Increased bone, periosteum, Moderate (number of animals) / Increased eroded surface, bone, Marked (number of animals) / Increased eroded surface, bone, Mild (number of animals) / Increased eroded surface, bone, Minimal (number of animals) / Increased eroded surface, bone, Moderate (number of animals) / Mixed cell inflammation, Marked (number of animals) / Mixed cell inflammation, Mild (number of animals) / Mixed cell inflammation, Minimal (number of animals) / Mixed cell inflammation, Moderate (number of animals) / No Visible Lesions (number of animals): hind limbs, CIA induced, 8 animals examined; for Pathologic observations after microscopic evaluation: Group 3 (CIA + Dexamethasone)
# From the text: Mean histopathologic scores for tissue samples from animals in Groups 1-6 are depicted in FIG. 22A, and day 21 histology scores for all animals are illustrated in FIG. 22B.
# [1] = Group 5 (CIA + Compound A 1 mg/kg), 1 mg/kg
# [2] = Group 6 (CIA + Compound A 3 mg/kg)
# [3] = Group 7 (CIA + Compound A 10 mg/kg), two out of eight samples
smiles,measurement,setting,value
"Cn1cc(-c2ccccc2)c(-c2cn(C)c(=O)c3[nH]c(-c4cnn(C(F)(F)F)c4)cc23)cc1=O [Compound A, 6-methyl-4-(1-methyl-2-oxo-5-phenyl-1,2-dihydropyridin-4-yl)-2-(1-(trifluoromethyl)-1H-pyrazol-4-yl)-1,6-dihydro-7H-pyrrolo[2,3-c]pyridin-7-one]",Samples with no pathologic observations,"1 mg/kg, Group 5",One out of eight
same,Samples with no pathologic observations,"3 mg/kg, Group 6",Two out of eight
same,Samples with no pathologic observations,"10 mg/kg, Group 7",Six out of eight
same,Animals exhibiting normal limb/joint pathology,"10 mg/kg, day 21",6/8
same,"Erosion/ulcer in articular cartilage, grade",[1],mild and mild to moderate
same,"Granulation tissue (pannus), grade",[1],mild and mild to moderate
same,"Increased eroded surface of bone (bone resorption), grade",[1],mild and mild to moderate
same,"Increased periosteal bone (periosteal bone formation), grade",[1],mild and mild to moderate
same,"Mixed cell inflammation, grade",[1],moderate to marked
same,"Erosion/ulcer in articular cartilage, grade",[2],mild
same,"Increased eroded surface of bone (bone resorption), grade",[2],mild
same,"Increased periosteal bone (periosteal bone formation), grade",[2],mild
same,"Mixed cell inflammation, grade",[2],moderate
same,"Granulation tissue (pannus), grade","Group 6 (CIA + Compound A 3 mg/kg), 3 mg/kg",mild and mild to moderate
same,"Histopathological observations, representative sample/image","Group 7 (CIA + Compound A 10 mg/kg), FIG. 23G, 23I, 10 mg/kg",no histopathological observations noted; also recorded: normal joint pathology
same,"Erosion in the articular cartilage, grade",[3],mild
same,"Granulation tissue (pannus), grade",[3],mild
same,"Increased periosteal bone (periosteal bone formation), grade",[3],minimal
same,"Mixed cell inflammation, grade",[3],mild to moderate
same,Pathologic observations relative to CIA-induced group (Group 2),"Groups 5-7 (Compound A 1, 3, 10 mg/kg)","all decreased in severity, extent, and distribution"
same,Severity of arthritic histopathology versus vehicle- and GSK620-treated animals,"all tested doses (1, 3, 10 mg/kg)",dose-dependent reduction in the severity of arthritic histopathology; also recorded: significant dose-dependent decrease in the incidence and severity of collagen-induced arthritis
same,"Erosion/Ulcer, cartilaginous, Marked (number of animals)",1 mg/kg,0
same,"Erosion/Ulcer, cartilaginous, Mild (number of animals)",1 mg/kg,6
same,"Erosion/Ulcer, cartilaginous, Minimal (number of animals)",1 mg/kg,0
same,"Erosion/Ulcer, cartilaginous, Moderate (number of animals)",1 mg/kg,1
same,"Granulation tissue, Marked (number of animals)",1 mg/kg,0
same,"Granulation tissue, Mild (number of animals)",1 mg/kg,3
same,"Granulation tissue, Minimal (number of animals)",1 mg/kg,0
same,"Granulation tissue, Moderate (number of animals)",1 mg/kg,3
same,"Increased bone, periosteum, Marked (number of animals)",1 mg/kg,0
same,"Increased bone, periosteum, Mild (number of animals)",1 mg/kg,4
same,"Increased bone, periosteum, Minimal (number of animals)",1 mg/kg,1
same,"Increased bone, periosteum, Moderate (number of animals)",1 mg/kg,0
same,"Increased eroded surface, bone, Marked (number of animals)",1 mg/kg,0
same,"Increased eroded surface, bone, Mild (number of animals)",1 mg/kg,3
same,"Increased eroded surface, bone, Minimal (number of animals)",1 mg/kg,0
same,"Increased eroded surface, bone, Moderate (number of animals)",1 mg/kg,2
same,"Mixed cell inflammation, Marked (number of animals)",1 mg/kg,0
same,"Mixed cell inflammation, Mild (number of animals)",1 mg/kg,2
same,"Mixed cell inflammation, Minimal (number of animals)",1 mg/kg,1
same,"Mixed cell inflammation, Moderate (number of animals)",1 mg/kg,4
same,No Visible Lesions (number of animals),1 mg/kg,1
same,"Erosion/Ulcer, cartilaginous, Marked (number of animals)",3 mg/kg,0
same,"Erosion/Ulcer, cartilaginous, Mild (number of animals)",3 mg/kg,3
same,"Erosion/Ulcer, cartilaginous, Minimal (number of animals)",3 mg/kg,3
same,"Erosion/Ulcer, cartilaginous, Moderate (number of animals)",3 mg/kg,0
same,"Granulation tissue, Marked (number of animals)",3 mg/kg,0
same,"Granulation tissue, Mild (number of animals)",3 mg/kg,4
same,"Granulation tissue, Minimal (number of animals)",3 mg/kg,0
same,"Granulation tissue, Moderate (number of animals)",3 mg/kg,2
same,"Increased bone, periosteum, Marked (number of animals)",3 mg/kg,0
same,"Increased bone, periosteum, Mild (number of animals)",3 mg/kg,4
same,"Increased bone, periosteum, Minimal (number of animals)",3 mg/kg,2
same,"Increased bone, periosteum, Moderate (number of animals)",3 mg/kg,0
same,"Increased eroded surface, bone, Marked (number of animals)",3 mg/kg,0
same,"Increased eroded surface, bone, Mild (number of animals)",3 mg/kg,3
same,"Increased eroded surface, bone, Minimal (number of animals)",3 mg/kg,2
same,"Increased eroded surface, bone, Moderate (number of animals)",3 mg/kg,0
same,"Mixed cell inflammation, Marked (number of animals)",3 mg/kg,0
same,"Mixed cell inflammation, Mild (number of animals)",3 mg/kg,2
same,"Mixed cell inflammation, Minimal (number of animals)",3 mg/kg,0
same,"Mixed cell inflammation, Moderate (number of animals)",3 mg/kg,4
same,No Visible Lesions (number of animals),3 mg/kg,2
same,"Erosion/Ulcer, cartilaginous, Marked (number of animals)",10 mg/kg,0
same,"Erosion/Ulcer, cartilaginous, Mild (number of animals)",10 mg/kg,1
same,"Erosion/Ulcer, cartilaginous, Minimal (number of animals)",10 mg/kg,1
same,"Erosion/Ulcer, cartilaginous, Moderate (number of animals)",10 mg/kg,0
same,"Granulation tissue, Marked (number of animals)",10 mg/kg,0
same,"Granulation tissue, Mild (number of animals)",10 mg/kg,1
same,"Granulation tissue, Minimal (number of animals)",10 mg/kg,0
same,"Granulation tissue, Moderate (number of animals)",10 mg/kg,0
same,"Increased bone, periosteum, Marked (number of animals)",10 mg/kg,0
same,"Increased bone, periosteum, Mild (number of animals)",10 mg/kg,0
same,"Increased bone, periosteum, Minimal (number of animals)",10 mg/kg,0
same,"Increased bone, periosteum, Moderate (number of animals)",10 mg/kg,0
same,"Increased eroded surface, bone, Marked (number of animals)",10 mg/kg,0
same,"Increased eroded surface, bone, Mild (number of animals)",10 mg/kg,0
same,"Increased eroded surface, bone, Minimal (number of animals)",10 mg/kg,1
same,"Increased eroded surface, bone, Moderate (number of animals)",10 mg/kg,0
same,"Mixed cell inflammation, Marked (number of animals)",10 mg/kg,0
same,"Mixed cell inflammation, Mild (number of animals)",10 mg/kg,1
same,"Mixed cell inflammation, Minimal (number of animals)",10 mg/kg,0
same,"Mixed cell inflammation, Moderate (number of animals)",10 mg/kg,1
same,No Visible Lesions (number of animals),10 mg/kg,6
"C[C@@H]1C[C@H]2[C@@H]3CCC4=CC(=O)C=C[C@]4(C)[C@@]3(F)[C@@H](O)C[C@]2(C)[C@@]1(O)C(=O)CO [Dexamethasone, dexamethasone]",Pathologic observations after microscopic evaluation,,no histopathological observations noted
same,Pathologic observations after microscopic evaluation,listed as dexamethasone,No pathologic observations
same,"Erosion/Ulcer, cartilaginous, Marked (number of animals)","comparator, dose not given",0
same,"Erosion/Ulcer, cartilaginous, Mild (number of animals)","comparator, dose not given",0
same,"Erosion/Ulcer, cartilaginous, Minimal (number of animals)","comparator, dose not given",0
same,"Erosion/Ulcer, cartilaginous, Moderate (number of animals)","comparator, dose not given",0
same,"Granulation tissue, Marked (number of animals)","comparator, dose not given",0
same,"Granulation tissue, Mild (number of animals)","comparator, dose not given",0
same,"Granulation tissue, Minimal (number of animals)","comparator, dose not given",0
same,"Granulation tissue, Moderate (number of animals)","comparator, dose not given",0
same,"Increased bone, periosteum, Marked (number of animals)","comparator, dose not given",0
same,"Increased bone, periosteum, Mild (number of animals)","comparator, dose not given",0
same,"Increased bone, periosteum, Minimal (number of animals)","comparator, dose not given",0
same,"Increased bone, periosteum, Moderate (number of animals)","comparator, dose not given",0
same,"Increased eroded surface, bone, Marked (number of animals)","comparator, dose not given",0
same,"Increased eroded surface, bone, Mild (number of animals)","comparator, dose not given",0
same,"Increased eroded surface, bone, Minimal (number of animals)","comparator, dose not given",0
same,"Increased eroded surface, bone, Moderate (number of animals)","comparator, dose not given",0
same,"Mixed cell inflammation, Marked (number of animals)","comparator, dose not given",0
same,"Mixed cell inflammation, Mild (number of animals)","comparator, dose not given",0
same,"Mixed cell inflammation, Minimal (number of animals)","comparator, dose not given",0
same,"Mixed cell inflammation, Moderate (number of animals)","comparator, dose not given",0
same,No Visible Lesions (number of animals),"comparator, dose not given",8
CNC(=O)c1cc(C(=O)NC2CC2)cn(Cc2ccccc2)c1=O [GSK620],"Erosion/ulcer in articular cartilage, grade",Group 4 (CIA + GSK620),mild and mild to moderate
same,"Granulation tissue (pannus), grade",Group 4 (CIA + GSK620),mild and mild to moderate
same,"Increased eroded surface of bone (bone resorption), grade",Group 4 (CIA + GSK620),mild and minimal to moderate
same,"Increased periosteal bone (periosteal bone formation), grade",Group 4 (CIA + GSK620),mild and mild to moderate
same,"Mixed cell inflammation, grade",Group 4 (CIA + GSK620),moderate
same,"Erosion/Ulcer, cartilaginous, Marked (number of animals)","comparator, dose not given",0
same,"Erosion/Ulcer, cartilaginous, Mild (number of animals)","comparator, dose not given",6
same,"Erosion/Ulcer, cartilaginous, Minimal (number of animals)","comparator, dose not given",0
same,"Erosion/Ulcer, cartilaginous, Moderate (number of animals)","comparator, dose not given",2
same,"Granulation tissue, Marked (number of animals)","comparator, dose not given",0
same,"Granulation tissue, Mild (number of animals)","comparator, dose not given",4
same,"Granulation tissue, Minimal (number of animals)","comparator, dose not given",0
same,"Granulation tissue, Moderate (number of animals)","comparator, dose not given",4
same,"Increased bone, periosteum, Marked (number of animals)","comparator, dose not given",0
same,"Increased bone, periosteum, Mild (number of animals)","comparator, dose not given",6
same,"Increased bone, periosteum, Minimal (number of animals)","comparator, dose not given",0
same,"Increased bone, periosteum, Moderate (number of animals)","comparator, dose not given",2
same,"Increased eroded surface, bone, Marked (number of animals)","comparator, dose not given",0
same,"Increased eroded surface, bone, Mild (number of animals)","comparator, dose not given",4
same,"Increased eroded surface, bone, Minimal (number of animals)","comparator, dose not given",1
same,"Increased eroded surface, bone, Moderate (number of animals)","comparator, dose not given",3
same,"Mixed cell inflammation, Marked (number of animals)","comparator, dose not given",0
same,"Mixed cell inflammation, Mild (number of animals)","comparator, dose not given",0
same,"Mixed cell inflammation, Minimal (number of animals)","comparator, dose not given",0
same,"Mixed cell inflammation, Moderate (number of animals)","comparator, dose not given",8
same,No Visible Lesions (number of animals),"comparator, dose not given",0
